From patent US20110301102A1, “COMPOSITIONS AND METHODS FOR TREATING MYELODYSPLASTIC SYNDROME” (Telik, Inc., priority 2010, published 2011)

Assays:
[1] = system: patients with MDS (IPSS low and intermediate-1 risk); conditions: one patient (Quddus et al.); cited from earlier work
[2] = system: patients with MDS (IPSS low and intermediate-1 risk); test: Clinical study of Telintra (ezatiostat hydrochloride) in patients with MDS, two dosing schedules; conditions: for patients with significant RBC transfusion reduction: 5 of 11 patients
Procedure: Eighty-seven patients were randomized and treated at 23 investigational sites. After initial dose ranging in 14 patients, two dose levels were selected for further study. Subsequently, 37 patients were treated at 3 grams daily for two weeks followed by a one week rest period, and 36 patients were treated at 2 grams daily for three weeks followed by a one week rest period. The data on these 73 patients was pooled for this preliminary analysis.
The median age was 72 years, with a patient population distribution of International Prognostic Scoring System (IPSS) low risk (23 patients, 32%) and intermediate-1 risk (50 patients, 68%).

CCOC(=O)[C@@H](N)CCC(=O)N[C@@H](CSCc1ccccc1)C(=O)N[C@@H](C(=O)OCC)c1ccccc1 [Telintra®, ethyl (2S)-2-amino-5-[[(2R)-3-benzylsulfanyl-1-[[(1R)-2-ethoxy-2-oxo-1-phenylethyl]amino]-1-oxopropan-2-yl]amino]-5-oxopentanoate]
duration of complete remission following discontinuation of therapy [1]: more than 12 months
Duration of HI-E Response, Median (95% CI) ([2]; 1 g b.i.d. (2 grams per day) 3 weeks on & 1 week off): 46.1 (10.0-46.1) Weeks
Duration of HI-E Response, Median (95% CI) ([2]; 1.5 g b.i.d. (3 grams per day) 2 weeks on & 1 week off): 18.4 (3.1-51.0) Weeks
patients achieving RBC transfusion independence ([2]; 4 of 38 RBC transfusion-dependent patients, pooled): 11%
patients with clinically significant RBC transfusion reductions (reduction of 4 U/8 weeks, IWG 2006) ([2]; 11 of 38 RBC transfusion-dependent patients, pooled): 29%
effect of prior DMTI treatment on GI adverse events ([2]; all patients treated): increased incidence of GI AEs
incidence of diarrhea, Grade 1 ([2]; all patients treated): 25%
incidence of diarrhea, Grade 2 ([2]; all patients treated): 7%
incidence of diarrhea, Grade 3 ([2]; all patients treated): 3%
incidence of nausea, Grade 1 ([2]; all patients treated): 45%
incidence of nausea, Grade 2 ([2]; all patients treated): 16%
incidence of nausea, Grade 3 ([2]; all patients treated): 1%
incidence of vomiting, Grade 1 ([2]; all patients treated): 30%
incidence of vomiting, Grade 2 ([2]; all patients treated): 12%
incidence of vomiting, Grade 3 ([2]; all patients treated): 2%
number of cytogenetic complete responses ([2]; all patients, pooled): three
effect of prior Revlimid treatment on HI-E response ([2]; logistic regression analysis): enhance HI-E response
change in the odds for a HI-E response with prior DMTI treatment ([2]; logistic regression analysis, p=0.023): five-fold decrease
patients with significant RBC transfusion reduction ([2]; no prior Revlimid, no prior DMTI): 45%
number of patients with complete cytogenetic response ([2]; of the four patients with del 5q minus): two
patients achieving transfusion independence ([2]; prior Revlimid, no prior DMTI, 3 of 11 patients): 27%
patients with significant RBC transfusion reduction ([2]; prior Revlimid, no prior DMTI): 45%
